Laboratory results published in PMC11992225, “Antibacterial compounds against non-growing and intracellular bacteria” (npj Antimicrobials and Resistance, 2025).
In brackets after ≈: the same amount, converted by molar mass. Read-outs that look alike come from different tables or passages of the source.

Columns and labels:
E. coli CFT073 (UPEC) = assay: MIC, standard microdilution assay, growing UPEC; type: cell-based, Escherichia coli; details: Escherichia coli
Procedure, shortened: (§1)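 Each strain was exposed to serially diluted compound in broth, in triplicate. The media were TSB for Shigella; CA-MHB at pH 7.4 (HEPES 40 mM) for S. aureus, P. aeruginosa and UPEC; and, for UPEC only, low-pH LPM (pH 5.5, 30 mM MES).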

P. aeruginosa DSM1117 = assay: MIC, standard microdilution assay, growing P. aeruginosa; type: cell-based, Pseudomonas aeruginosa; details: Pseudomonas aeruginosa
Procedure, shortened: as §1

S. flexneri 5a M90T = assay: MIC in tryptic soy broth, S. flexneri; type: cell-based, Shigella flexneri; details: Shigella flexneri, 5AM90T, read-out: MIC (μM) TSB
Procedure, shortened: as §1

[1] = system: non-growing P. aeruginosa DSM1117; assay: Dilution-regrowth assay (OD600, start-growth-time) on stationary-phase P. aeruginosa; type: cell-based, Pseudomonas aeruginosa; details: for EC50: Pseudomonas aeruginosa; for Regrowth, OD600 at 6h or 8h after dilution into drug-free medium: average
Protocol: To determine the spectrum of activity of the compounds that were effective against non-growing UPEC, we further assessed their efficacy against the well-characterized Gram-negative and Gram-positive reference strains P. aeruginosa DSM1117 and S. aureus DSM2569, respectively. The cultures were grown and treated for 24 h in 1:4 CA-MHB (pH 7.4). […].
For better characterization of the compounds causing the strongest regrowth delay, we performed the regrowth step of the dilution-regrowth experiments on a plate reader, measuring the OD600 at 20-min intervals for over 20 h instead of using an endpoint measurement. This approach allowed us to capture the time when cultures reached a threshold optical density (start-growth-time, SGT[15]).
Overnight cultures of UPEC, P. aeruginosa and S. aureus were grown in test tubes containing 3 ml of LB broth (~16 h), then diluted 1:100 into either 1:4 diluted CA-MHB medium buffered with 40 mM HEPES (pH 7.4) or, in case of UPEC, into LPM medium[25] supplemented with 49 µM MgCl2 and buffered with 30 mM MES (pH 5.5). The cultures were incubated for 24 h in non-baffled Erlenmeyer flasks at 37 °C with shaking at 200 rpm.
For P. aeruginosa and S. aureus, dose–response analysis was conducted in 96-well plates with a 200 μl assay volume, following the procedure used for screening assay validation experiments. Aliquots of the 39 compounds active against non-growing UPEC were obtained from SelleckChem and MedChem Express. Stock solutions were prepared and stored according to the manufacturers’ instructions, then diluted in 10% DMSO before use. Cultures were incubated for 24 h in 1:4 diluted CA-MHB medium under the same conditions used for UPEC cultivation. In preliminary experiments, each compound was tested at a concentration of 20 μM in the dilution-regrowth assay with 4 technical replicates. Regrowth was monitored using a microplate reader at 37 °C with continuous shaking, and OD600 was recorded every 20 min. The time at which OD600 exceeded the threshold of 0.12 was recorded as the Start_Growth-Time.
The statistical analysis of all data, as well as EC50 and IC50 determination, was conducted using GraphPad Prism 10.2.3. Statistical significance of the drug effects was assessed using a one-way ANOVA followed by Dunnett’s test, comparing each treatment to the drug-free control. Statistical significance of the differences in chemical characteristics between the hit compounds and the Prestwick library was assessed using a Mann–Whitney test. Statistical significance was set at P ≤ 0.05. A five-parameter logistic equation was used for asymmetric sigmoidal curve fitting and for EC50 and IC50 determination. The Venn diagram in Fig. 1F was prepared using BioVenn web application. Characteristics of the chemical and physical properties of Prestwick library compounds were obtained from Supplementary Table S1 from reference. Characteristics of the hit compounds not included in the Prestwick library were retrieved from the PubChem database.

[2] = system: intracellular S. flexneri 5a M90T in TC7 cells; assay: microbe, parasite or virus in culture; type: cell-based, Shigella flexneri; details: for IC50: Shigella flexneri, TC7, 14 h
[3] = E. coli, LPM pH 5.5, read-out: MIC
[4] = E. coli, pH 7.4, CA-MHB, read-out: MIC (μM) CA-MHB
[5] = DSM1117, P. aeruginosa, 1:4 diluted CA-MHB pH 7.4, read-out: MIC (μM) 1:4 CA-MHB
[6] = DSM1117, P. aeruginosa, CA-MHB pH 7.4, read-out: MIC (μM) CA-MHB
[7] = DSM1117, P. aeruginosa, regrowth delay of non-growing bacteria, 1:4 CA-MHB pH 7.4, 24 h treatment, OD600 8 h after dilution, read-out: EC50
[8] = TC7 cells infected with GFP-expressing S. flexneri, 14 h treatment

Row | Structure (SMILES) | MIC (E. coli CFT073 (UPEC); [3]) [µM] | MIC (E. coli CFT073 (UPEC); [4]) [µM] | MIC (P. aeruginosa DSM1117; [5]) [µM] | MIC (P. aeruginosa DSM1117; [6]) [µM] | MIC (S. flexneri 5a M90T) [µM] | EC50 [1, 7] [nM] | IC50 [2] [nM] | Fluorescence intensity (RFU), Mean, 0.5 x MIC [2, 8] [RFU] | Fluorescence intensity (RFU), Mean, 2 x MIC [2, 8] [RFU] | Fluorescence intensity (RFU), Mean, 4 x MIC [2, 8] [RFU] | Fluorescence intensity (RFU), Mean, 8 x MIC [2, 8] [RFU] | Fluorescence intensity (RFU), Mean, 16 x MIC [2, 8] [RFU] | Fluorescence intensity (RFU), Mean, 32 x MIC [2, 8] [RFU] | Fluorescence intensity (RFU), Mean, MIC [2, 8] [RFU] | Fluorescence intensity (RFU), Mean, 0.25 x MIC [2, 8] [RFU] | also measured
1 | O=C(O)c1cn(C2CC2)c2cc(N3CCNCC3)c(F)cc2c1=O [Ciprofloxacin] | 0.25 (≈ 0.0828 µg/mL) | 0.125 (≈ 0.0414 µg/mL) | 2 (≈ 0.663 µg/mL) | 2 (≈ 0.663 µg/mL) | 0.0625 (≈ 0.0207 µg/mL) | 125 | 54 | 6160.67 | 3512.33 | 3078.86 | 2399.75 | 1781.06 | 1734.42 | 4637.36 |  | 
2 | NC1CCN(c2c(F)cc3c(=O)c(C(=O)O)cn(C4CC4)c3c2Cl)C1 (stereo not shown) [Clinafloxacin] |  | 0.0125 (≈ 0.00457 µg/mL) | 0.25 (≈ 0.0914 µg/mL) | 0.5 (≈ 0.183 µg/mL) | 0.0156 (≈ 0.00572 µg/mL) | 41 | 10 | 5544.33 | 3160.53 | 3034.56 | 2732.08 | 2021.17 | 1621.75 | 4423.92 | 7691.46 | MIC (E. coli CFT073 (UPEC); see Dataset 1, read-out: MIC (lowest measured MIC for all hit compounds)): 0.0125 µM (≈ 0.00457 µg/mL)
3 | CN1C[C@@H]2C[C@H]1CN2c1cc2c(cc1F)c(=O)c(C(=O)O)cn2C1CC1 [Danofloxacin] |  | 0.125 (≈ 0.0447 µg/mL) | 4 (≈ 1.43 µg/mL) | 4 (≈ 1.43 µg/mL) | 0.0625 (≈ 0.0223 µg/mL) | 604 | 52 | 8906.42 | 3750.58 | 3092.69 | 2319.78 | 1798.5 | 1629.06 | 4339.36 | 9638.21 | 
4 | CN1CCN(c2cc3c(cc2F)c(=O)c(C(=O)O)cn3-c2ccc(F)cc2)CC1 [Difloxacin] | 0.0625 (≈ 0.025 µg/mL) | 0.25 (≈ 0.0998 µg/mL) | 8 (≈ 3.2 µg/mL) | 8 (≈ 3.2 µg/mL) | 0.25 (≈ 0.0998 µg/mL) | 2360 | 183 | 8126.42 | 3233.81 | 2824.97 | 2319.67 | 1827.36 | 1634.92 | 3866.17 | 8915.25 | 
5 | CCN1CCN(c2cc3c(cc2F)c(=O)c(C(=O)O)cn3C2CC2)CC1 [Enrofloxacin] | 0.125 (≈ 0.0449 µg/mL) | 0.1 (≈ 0.0359 µg/mL) | 4 (≈ 1.44 µg/mL) | 4 (≈ 1.44 µg/mL) | 0.0625 (≈ 0.0225 µg/mL) | 690 | 36 | 6043.88 | 2710.72 | 1953.94 | 1617.72 | 1488.39 | 1501.89 | 3054.19 | 7346.62 | Fluorescence intensity (RFU), Mean, 0.125 x MIC ([2]; TC7 cells infected with GFP-expressing S. flexneri, 14 h treatment, 0.125 x MIC): 8510.46 RFU
6 | C[C@H]1NCc2cc(-c3ccc4c(=O)c(C(=O)O)cn(C5CC5)c4c3OC(F)F)ccc21 [Garenoxacin] | 0.125 (≈ 0.0533 µg/mL) | 0.125 (≈ 0.0533 µg/mL) | 4 (≈ 1.71 µg/mL) | 4 (≈ 1.71 µg/mL) | 0.0625 (≈ 0.0267 µg/mL) | 978 | 31 | 5273 | 3944.5 | 3336.42 | 2806.31 | 2331.56 | 1840.28 | 3888.86 | 6643.04 | 
7 | COc1c(N2CCNC(C)C2)c(F)cc2c(=O)c(C(=O)O)cn(C3CC3)c12 (stereo not shown) [Gatifloxacin] |  | 0.125 (≈ 0.0469 µg/mL) | 4 (≈ 1.5 µg/mL) | 4 (≈ 1.5 µg/mL) | 0.0312 (≈ 0.0117 µg/mL) | 182 | 34 | 7621.42 | 3709.33 | 3006.58 | 2924.83 | 2191.44 | 1768.58 | 5214.92 |  | 
8 | CO/N=C1\CN(c2nc3c(cc2F)c(=O)c(C(=O)O)cn3C2CC2)CC1CN (stereo not shown) [Gemifloxacin] | 0.25 (≈ 0.0973 µg/mL) | 0.025 (≈ 0.00973 µg/mL) | 2 (≈ 0.779 µg/mL) | 1 (≈ 0.389 µg/mL) | 0.0156 (≈ 0.00608 µg/mL) | 165 | 22 |  | 4953.61 | 3661.36 | 3159.39 | 3090.56 | 2706.11 | 6688.44 |  | Regrowth, OD600 at 6h or 8h after dilution into drug-free medium ([1]; P. aeruginosa, concentration 0.1): 0.486; Regrowth, OD600 at 6h or 8h after dilution into drug-free medium ([1]; P. aeruginosa, concentration 0.5): 0.138; Regrowth, OD600 at 6h or 8h after dilution into drug-free medium ([1]; P. aeruginosa, concentration 2.5): 0.091; Regrowth, OD600 at 6h or 8h after dilution into drug-free medium ([1]; P. aeruginosa, concentration 10): 0.090
9 | CO[C@@]12[C@H](COC(N)=O)C3=C(C(=O)C(C)=C(N)C3=O)N1C[C@@H]1N[C@@H]12 [Mitomycin C] |  |  |  |  | 1 (≈ 0.334 µg/mL) |  | 451 |  | 2991.58 | 2579.31 | 2274.5 | 1986.92 | 1617.58 | 3708.94 |  | MIC (E. coli CFT073 (UPEC); pH 5.5): 0.5 µM (≈ 0.167 µg/mL); MIC (E. coli CFT073 (UPEC); pH 7.4, read-out: MIC (μM) CA-MHB): 2 µM (≈ 0.669 µg/mL); MIC (P. aeruginosa DSM1117; DSM1117, pH 7.4, read-out: MIC (μM) 1:4 CA-MHB): 10 µM (≈ 3.34 µg/mL); MIC (P. aeruginosa DSM1117; DSM1117, pH 7.4, read-out: MIC (μM) CA-MHB): 10 µM (≈ 3.34 µg/mL); Regrowth, OD600 at 6h or 8h after dilution into drug-free medium (average) ([1]; P. aeruginosa, drug concentration 0.1): 0.203; Regrowth, OD600 at 6h or 8h after dilution into drug-free medium (average) ([1]; P. aeruginosa, drug concentration 0.5): 0.116; Regrowth, OD600 at 6h or 8h after dilution into drug-free medium (average) ([1]; P. aeruginosa, drug concentration 2.5): 0.094; Regrowth, OD600 at 6h or 8h after dilution into drug-free medium (average) ([1]; P. aeruginosa, drug concentration 10): 0.095; EC50 ([1]; DSM1117, pH 7.4): 28 nM
